# Legend:
# [1] = biological target: T1, phosphorylated human α2β2γ1 complex (WT) (Homo sapiens, UniProt P54619+P54646); test: AMPK inactivation and Thr172 dephosphorylation by PP2Cα (PPM1A), WT; type: biochemical; conditions: 300 µM nucleotide, absence of ATP
# T1 construct: made in house; host or cells: Escherichia coli
# Method: The relative roles of the three CBS sites in the other two mechanisms of activation of AMPK by AMP or ADP, i.e. promotion of Thr172 phosphorylation by LKB1, and protection against Thr172 dephosphorylation by protein phosphatases, have not been examined previously. As expected, incubation of the α2β2γ1 AMPK complex with a fixed, limiting amount of purified LKB1:STRADα:MO25α complex in the presence of 200 µM Mg.ATP^2− caused a large degree of activation (Figure 5A) and phosphorylation (Figure 5B) of AMPK (unphosphorylated α2β2γ1 complex), which were stimulated more than 2-fold by 300 µM AMP and 1.6-fold by 300 µM ADP.
# Figure 6. Effects of AMP or ADP on AMPK inactivation and Thr172 dephosphorylation by PP2Cα (PPM1A). Human α2β2γ1 complexes (WT, or with L129D/V130D, V276G/L277G or I312G mutations affecting CBS1, CBS3 or CBS4 respectively), all phosphorylated on Thr172, were incubated with a fixed concentration of PP2Cα (PPM1A) in the presence or absence of AMP or ADP (both 300 µM) as described in the Materials and methods section. After the incubation, aliquots were withdrawn for (A) AMPK assay or (B) Western blots. […] For (B), due to a limit on the number of lanes that could be run on one gel, single replicates from the triplicate assays were analysed. […]
# [2] = tested on: FLAG-γ1-containing AMPK complexes; parameters: method as in PMID 26542978; conditions: ADP 300 µM to 3 mM; cited from earlier work
# T1 sequence (P54619 whole entry): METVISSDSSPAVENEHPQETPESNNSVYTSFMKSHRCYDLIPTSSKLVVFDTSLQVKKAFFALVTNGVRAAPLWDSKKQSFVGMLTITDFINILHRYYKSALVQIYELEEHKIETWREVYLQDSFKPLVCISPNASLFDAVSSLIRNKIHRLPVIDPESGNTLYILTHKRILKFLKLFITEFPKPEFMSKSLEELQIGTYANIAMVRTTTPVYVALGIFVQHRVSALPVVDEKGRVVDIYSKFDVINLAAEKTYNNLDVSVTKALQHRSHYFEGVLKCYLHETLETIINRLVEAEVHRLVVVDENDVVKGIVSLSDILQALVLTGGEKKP
# T1 sequence (P54646 whole entry): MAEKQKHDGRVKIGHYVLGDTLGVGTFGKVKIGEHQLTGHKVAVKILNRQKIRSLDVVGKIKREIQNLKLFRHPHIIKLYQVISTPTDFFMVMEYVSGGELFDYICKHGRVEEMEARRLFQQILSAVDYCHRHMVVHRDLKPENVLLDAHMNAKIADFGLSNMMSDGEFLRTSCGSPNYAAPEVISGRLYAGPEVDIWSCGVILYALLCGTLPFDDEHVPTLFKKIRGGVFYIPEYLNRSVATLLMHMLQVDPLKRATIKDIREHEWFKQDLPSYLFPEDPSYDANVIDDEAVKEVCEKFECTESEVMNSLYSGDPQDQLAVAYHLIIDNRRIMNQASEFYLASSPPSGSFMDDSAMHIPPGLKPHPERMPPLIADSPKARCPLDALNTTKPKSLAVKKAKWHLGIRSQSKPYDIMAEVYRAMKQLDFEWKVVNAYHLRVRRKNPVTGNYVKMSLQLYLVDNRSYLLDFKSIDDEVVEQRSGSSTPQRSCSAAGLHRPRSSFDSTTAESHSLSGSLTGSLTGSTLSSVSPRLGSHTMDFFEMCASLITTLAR
# T1 sequence (O43741 whole entry partner): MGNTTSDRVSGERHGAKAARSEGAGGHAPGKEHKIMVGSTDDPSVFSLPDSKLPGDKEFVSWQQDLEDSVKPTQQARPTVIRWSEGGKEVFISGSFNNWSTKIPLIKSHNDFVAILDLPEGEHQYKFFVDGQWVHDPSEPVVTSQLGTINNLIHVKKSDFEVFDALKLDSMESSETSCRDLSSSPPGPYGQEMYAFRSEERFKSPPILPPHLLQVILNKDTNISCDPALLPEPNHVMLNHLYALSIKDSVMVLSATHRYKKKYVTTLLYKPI
Structure (SMILES),inactivation and dephosphorylation of AMPK by PPM1A in the presence of nucleotide [1],stimulation of activation by LKB1 [2] [fold]
Nc1ncnc2c1ncn2[C@@H]1O[C@H](COP(=O)(O)O)[C@@H](O)[C@H]1O [AMP],greatly reduced,–
Nc1ncnc2c1ncn2[C@@H]1O[C@H](COP(=O)(O)OP(=O)(O)O)[C@@H](O)[C@H]1O [ADP],greatly reduced,< 2
